Data reported in US7960378B2, “Therapeutic compounds” (Allergan, Inc., priority 2008, dated 2011).

Legend:
Assay type in all cases: in vivo
[1] = test system: laser-induced hypertensive monkeys; experiment: IOP in laser-induced hypertensive monkeys; conditions: versus baseline
normotensive dogs = experiment: IOP in normotensive dogs; conditions: versus baseline
[2] = test system: lashes and adjacent hairs of the eyelids; experiment: Lash and adjacent hair changes in glaucoma patients treated in one eye; conditions: glaucoma patient treated in only one eye
From the text: In the course of treating patients having glaucoma, treatment may only be appropriate in one eye. […] The lash appearance on the lids of the treated eyes would have appeared quite attractive if it represented a bilateral phenomenon. As a result of its asymmetric nature, the long lashes on one side could be construed as disturbing from a cosmetic standpoint. A systemic examination was preformed as a result of the asymmetric phenomenon. It soon became apparent that this altered appearance was not an isolated finding. […] Definite differences could be identified to varying degrees in the lashes and adjacent hairs of all patients who were taking the drug on a unilateral basis for longer than 6 months.
The changes in the lashes were apparent on gross inspection in several patients once attention was focused on the issue. In those with light colored hair and lashes, the differences were only seen easily with the aid of the high magnification and lighting capabilities of the slit lamp biomicroscope. In the course of glaucoma follow-up examination, attention is generally immediately focused on the eye itself. As a result of the high power magnification needed only one eye is seen at a time and the eye is seen at a high enough power that the lashes are not in focus. […]

Compound | IOP [1] | intraocular pressure (IOP) (normotensive dogs) | lash appearance, treated eye versus non-treated eye [2]
CCC1(C(O)CCC[C@@H]2[C@@H](CCCCCCC(=O)OCCO)[C@H](C#N)C[C@H]2O)CCC1 (stereo partly drawn) [Compound III] | decreases from baseline | decreases from baseline | 
N#C[C@@H]1C[C@@H](O)[C@H](/C=C/CC(O)C2(c3cccs3)CCC2)[C@H]1C/C=C\CCCC(=O)OCCO (stereo partly drawn) [Compound II] | decreases from baseline | decreases from baseline | 
N#C[C@@H]1C[C@@H](O)[C@H](/C=C/CC(O)C2(c3cccs3)CCC2)[C@H]1CCCCCCC(=O)OCCO (stereo partly drawn) [Compound IV] | decreases from baseline | decreases from baseline | 
CCC1(C(O)C/C=C/[C@@H]2[C@@H](C/C=C\CCCC(=O)OCCN3CCOCC3)[C@H](C#N)C[C@H]2O)CCC1 (stereo partly drawn) [Compound IX] | decreases from baseline | decreases from baseline | 
CCC1(C(O)C/C=C/[C@@H]2[C@@H](C/C=C\CCCC(=O)OCCO)[C@H](C#N)C[C@H]2O)CCC1 (stereo partly drawn) [Compound I] | decreases from baseline | decreases from baseline | 
N#C[C@@H]1C[C@@H](O)[C@H](CCCC(O)C2(c3cccs3)CCC2)[C@H]1CCCCCCC(=O)OCCO (stereo partly drawn) [Compound VIII] | decreases from baseline | decreases from baseline | 
CCC1(C(O)C/C=C/[C@@H]2[C@@H](CCCc3ccc(C(=O)OCCO)s3)[C@H](C#N)C[C@H]2O)CCC1 (stereo partly drawn) [Compound VII] | decreases from baseline | decreases from baseline | 
CCC1(C(O)CCC[C@@H]2[C@@H](CCCc3ccc(C(=O)OCCO)s3)[C@H](C#N)C[C@H]2O)CCC1 (stereo partly drawn) [Compound VI] | decreases from baseline | decreases from baseline | 
N#C[C@@H]1C[C@@H](O)[C@H](/C=C/CC(O)C2(Cc3ccc(Cl)s3)CCC2)[C@H]1C/C=C\CCCC(=O)OCCO (stereo partly drawn) [Compound V] | decreases from baseline | decreases from baseline | 
N#C[C@@H]1C[C@@H](O)[C@H](/C=C/CC(O)C2(Cc3ccc(Cl)s3)CCC2)[C@H]1C/C=C\CCCC(=O)OCCN1CCOCC1 (stereo partly drawn) [Compound XIII] | decreases from baseline | decreases from baseline | 
N#C[C@@H]1C[C@@H](O)[C@H](/C=C/CC(O)C2(c3cccs3)CCC2)[C@H]1CCCCCCC(=O)OCCN1CCOCC1 (stereo partly drawn) [Compound XII] | decreases from baseline | decreases from baseline | 
CCC1(C(O)CCC[C@@H]2[C@@H](CCCc3ccc(C(=O)OCCN4CCOCC4)s3)[C@H](C#N)C[C@H]2O)CCC1 (stereo partly drawn) [Compound XIV] | decreases from baseline | decreases from baseline | 
CCC1(C(O)CCC[C@@H]2[C@@H](CCCCCCC(=O)OCCN3CCOCC3)[C@H](C#N)C[C@H]2O)CCC1 (stereo partly drawn) [Compound XI] | decreases from baseline | decreases from baseline | 
CCC1(C(O)C/C=C/[C@@H]2[C@@H](CCCc3ccc(C(=O)OCCN4CCOCC4)s3)[C@H](C#N)C[C@H]2O)CCC1 (stereo partly drawn) [Compound XVI] | decreases from baseline | decreases from baseline | 
N#C[C@@H]1C[C@@H](O)[C@H](CCCC(O)C2(c3cccs3)CCC2)[C@H]1CCCCCCC(=O)OCCN1CCOCC1 (stereo partly drawn) [Compound XV] | decreases from baseline | decreases from baseline | 
N#C[C@@H]1C[C@@H](O)[C@H](/C=C/CC(O)C2(c3cccs3)CCC2)[C@H]1C/C=C\CCCC(=O)OCCN1CCOCC1 (stereo partly drawn) [Compound X] | decreases from baseline | decreases from baseline | 
CCNC(=O)CCC/C=C\C[C@@H]1[C@@H](/C=C/[C@@H](O)CCc2ccccc2)[C@H](O)C[C@@H]1O [bimatoprost] |  |  | longer, thicker, and fuller in the treated eye than in the non-treated eye
